The numbers were not newly measured in patent US20100035919A1, “COMPOUNDS USEFUL AS INHIBITORS OF PROTEIN KINASES” (ABBOTT LABORATORIES, priority 2008, published 2010), which cites them from elsewhere.

Molecules are shown by their SMILES.

One data set deals with rat. Particulars: experimental myocardial infarction (MI); rat model of chronic hypertension induced congestive heart failure.
In the next data set the test system is Zucker obese rats. Conditions: 4 weeks.
A further data set relates to vein grafts. Conditions: weeks following the procedure.
The test system of a further data set is OLETF rats. Particulars: high dose.

On to `O=S(=O)(c1cccc2cnccc12)N1CCCNCC1` [fasudil], for which, in the data set with rat, the “effect on ischemia-reperfusion injury, myocardial infarct size and myocardial fibrosis” value was “decrease ischemia-reperfusion injury, myocardial infarct size, and myocardial fibrosis”. The “blood pressure, glucose and lipid metabolism, insulin signalling, endothelial dysfunction” value in the data set on Zucker obese rats was “reduced blood pressure, corrected glucose and lipid metabolism, improved insulin signalling and endothelial dysfunction”. In the data set with vein grafts, the VSMC apoptosis entry is “enhanced”; the “intimal thickening and vascular smooth muscle cell (VSMC) proliferation” value was “significantly suppressed”. The cerebral blood flow result (in vivo) was “increased cerebral blood flow”. In addition, for the setting “under CNS ischemic conditions”, the neuroprotection entry is listed as “neuroprotective”. For the same compound, in the data set with OLETF rats, the “development of diabetes, obesity, and dyslipidemia” value was “completely suppressed”; the serum adiponectin levels entry is reported as “increased”.

Regarding `C[C@@H](N)[C@H]1CC[C@H](C(=O)Nc2ccncc2)CC1` [Example Y-27632, Y-27632], the “effect on ischemia-reperfusion injury, myocardial infarct size and myocardial fibrosis” value in the data set on rat is “decrease ischemia-reperfusion injury, myocardial infarct size, and myocardial fibrosis”.
